Measured values published in patent publication US10654890B2, “Cyclic peptide derivative, method for preparing same and composition thereof” (priority 2014, dated 2020).

Tested on: culture astrocyte
Assay: Astrocyte proliferative activity test (BrdU cell proliferation ELISA)
Format: cell-based, mouse
Method: A pregnant ICR female mouse was purchased from Japan SLC, Inc., and a neonatal mouse 24 to 48 after birth was used for the test.
A neonatal ICR mouse (24 to 48 after birth) was sufficiently sterilized with 70% ethanol, immersed in 30 ml of PBS (−) in a 100 mm dish (diameter of 100 mm, Orange Scientific) for cell culture, and then placed in a clean bench. The neonatal mouse was subjected to cervical dislocation using tweezers and euthanized. Head of the neonatal mouse was open and the entire brain was removed. The obtained brain was transferred to a 100 mm dish for cell culture in which 15 ml of high glucose Dulbecco's modified Eagle medium (HG-D-MEM, Wako Pure Chemical Industries, Ltd.) is added. By using tweezers, the olfactory bulb, median eminence, and meninges were removed in the medium to obtain only a cerebrum having hippocampus. Subsequently, the obtained cerebrum was transferred to a 100 mm dish for cell culture added with 10 ml of HG-D-MEM, and using a scalpel, the cerebrum was finely cut to be 1 mm^2 or less. The cerebrum after cutting was transferred, together with the medium, to a 50 ml conical tube (TPP), and after allowing it to stand for 2 minutes, the supernatant was removed. Subsequently, the cerebrum after cutting was added with 4 ml of fresh HG-D-MEM, and after further adding 400 μl of 2.5% trypsin (SIGMA) and 40 μl of 1% DNase I (SIGMA), the cerebrum was incubated in a water bath at 37° C. for 10 minutes under intermittent stirring. Subsequently, to the cerebrum after cutting, 10 ml of HG-D-MEM (10% FBS) was added to terminate the reaction of trypsin followed by centrifuge for 3 minutes at 1,000×g using a centrifuge (H-9R, KOKUSAN Co., Ltd.). The supernatant was collected by an electric pipette, 10 ml of HG-D-MEM (10% FBS) was added to a precipitated cell mass, and pipetting using a sterile pipette was carried out several times until the cell mass is not observed. To remove the remaining cell mass from this cell dispersion, the cell dispersion was passed through a cell strainer (pore diameter of 100 μm, BD Falcon™), and the number of cells in the cell dispersion which has passed through the cell strainer was counted by using a cell counting plate. An adjustment was made with HG-D-MEM (10% FBS) such that the number of cells is 6.0×10^5 cells/ml. After the adjustment of the number of cells, the cell dispersion was seeded, in an amount of 7 ml for each, to a Poly-D-Lysine Cellware 100 mm Dish (PDL 100 mm dish, BD Falcon™). 96 Hours after the seeding, the medium was removed once using an aspirator, and after briefly washing the inside of a 100 mm PDL dish with 10 ml of PBS (−), the medium exchange was carried out by newly adding 7 ml of HG-D-MEM. The above method and the astrocyte preparation described below were carried out based on the method of McCarthy and de Vellis (1980, Non Patent Literature 30).
72 Hours after the medium exchange, the 100 mm PDL dish seeded with the cell broth was removed from the incubator, and tightly covered using a parafilm and fixed by overlaying 3 to 4 dishes. The resultant was cultured by shaking using a bioshaker (MULTI SHAKER MMS, INCUBATOR FMS/EYELA) under a condition including 37° C., 100 rpm, and 20 hours, and the neuronal cells, cell debris, dead cells or the like were liberated. At that time, in the inside the 100 mm PDL dish, only the astrocyte as a glial cell in central nervous system other than neuron was adhered (hereinbelow, described as culture astrocyte). After the shaking, the 100 mm PDL dish was transferred to a clean bench, the supernatant was removed by an aspirator and washed with 10 ml of PBS (−), and after adding 1 ml of 2.5% trypsin (SIGMA) using a Pasteur pipette, the dish was left to stand in an incubator for 10 minutes. The 100 mm PDL dish was again brought back to the clean bench, and added with 10 ml of Dulbecco's modified Eagle medium (D-MEM, Wako Pure Chemical Industries, Ltd.) (10% FBS). […]

| Compound | astrocyte proliferative activity (25 μM, FIG. 8 and FIG. 9) | astrocyte proliferation (100 μM, FIG. 7) |
| --- | --- | --- |
| CNC(=O)Oc1ccc2c(c1)[C@]1(C)CCN(C)[C@@H]1N2C [eserin, reference compound] | no significant astrocyte proliferative activity was observed | – |
| NS(=O)(=O)Cc1noc2ccccc12 [zonisamide, reference compound] | – | hardly observed |
